Drawing on patent publication US10399987B2, “TGF beta receptor antagonists” (BRISTOL-MYERS SQUIBB COMPANY, priority 2015, dated 2019), this text covers IC50 for 11 compounds.

Broadly, the IC50 is the concentration needed to halve the response being measured.

The target in the assay is HIS-TGFβR1 T204D (Homo sapiens (Human), UniProt P36897, T204D). The assay is described as follows: TGFβR1 HIS T204D HTRF assay (labeled small molecule probe, anti-HIS detection antibody). The format is binding. To be noted: 1 nM HIS-TGFβR1 T204D, probe at Kd, 1 hour at room temperature, eleven concentrations. On the technique in general: TR-FRET usually uses a lanthanide donor and a delayed reading to cut background.
Sequence of HIS-TGFβR1 T204D (P36897 34-503 T204D): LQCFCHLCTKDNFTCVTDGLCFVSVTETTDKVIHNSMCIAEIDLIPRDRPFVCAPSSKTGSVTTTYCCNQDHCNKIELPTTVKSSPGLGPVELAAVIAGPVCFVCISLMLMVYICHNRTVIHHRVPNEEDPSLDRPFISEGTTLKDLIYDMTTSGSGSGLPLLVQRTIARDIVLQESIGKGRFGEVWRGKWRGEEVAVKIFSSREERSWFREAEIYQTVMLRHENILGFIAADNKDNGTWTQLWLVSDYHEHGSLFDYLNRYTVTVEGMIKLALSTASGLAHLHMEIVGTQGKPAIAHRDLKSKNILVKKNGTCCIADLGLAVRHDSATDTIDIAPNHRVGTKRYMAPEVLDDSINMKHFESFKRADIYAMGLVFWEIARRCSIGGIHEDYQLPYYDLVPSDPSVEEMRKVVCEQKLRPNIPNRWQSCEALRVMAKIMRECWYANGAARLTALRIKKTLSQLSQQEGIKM

Take `CN(c1ccncc1)c1nc(-c2cccc(C(F)(F)F)n2)nc2[nH]ccc12` [Example 38, N-methyl-N-{2-[6-(trifluoromethyl)pyridin-2-yl]-7H-pyrrolo[2,3-d]pyrimidin-4-yl}pyridin-4-amine]: the concentration for half-maximal inhibition (IC50) turned out to be 0.59 nM.
The figure for `FC(F)(F)c1cccc(-c2nc(Nc3ccncc3C(F)(F)F)c3cc[nH]c3n2)n1` [Example 39, 3-(trifluoromethyl)-N-{2-[6-(trifluoromethyl)pyridin-2-yl]-7H-pyrrolo[2,3-d]pyrimidin-4-yl}pyridin-4-amine] is 0.64 nM; for `FC(F)(F)c1cccc(-c2nc(Nc3ccncc3Cl)c3cc[nH]c3n2)n1` [Example 40, 3-chloro-N-{2-[6-(trifluoromethyl)pyridin-2-yl]-7H-pyrrolo[2,3-d]pyrimidin-4-yl}pyridin-4-amine] it is 0.6 nM.
The compound `O=C(Nc1cc(Nc2nc(-c3cccc(C(F)(F)F)n3)nc3[nH]ccc23)ccn1)C1CC1` [Example 41, N-[4-({2-[6-(trifluoromethyl)pyridin-2-yl]-7H-pyrrolo[2,3-d]pyrimidin-4-yl}amino)pyridin-2-yl]cyclopropanecarboxamide] registered an IC50 of 0.87 nM.
The figure for `COc1cnccc1Nc1nc(-c2cccc(C(F)(F)F)n2)nc2[nH]ccc12` [Example 42, 3-methoxy-N-{2-[6-(trifluoromethyl)pyridin-2-yl]-7H-pyrrolo[2,3-d]pyrimidin-4-yl}pyridin-4-amine] is 1.7 nM; for `CC(=O)Nc1cc(Nc2nc(-c3cccc(C(F)F)n3)nc3[nH]cc(CNCC(C)(C)O)c23)c(F)cn1` [Example 44, N-[4-({2-[6-(difluoromethyl)pyridin-2-yl]-5-{[(2-hydroxy-2-methylpropyl)amino]methyl}-7H-pyrrolo[2,3-d]pyrimidin-4-yl}amino)-5-fluoropyridin-2-yl]acetamide] it is 2.6 nM; for `Cc1cnccc1Nc1nc(-c2ccc(F)c(C)n2)nc2[nH]ccc12` [Example 45, N-[2-(5-fluoro-6-methylpyridin-2-yl)-7H-pyrrolo[2,3-d]pyrimidin-4-yl]-3-methylpyridin-4-amine] it is 1 nM.
The same measure for `COc1cnccc1Nc1nc(-c2ccc(F)c(C)n2)nc2[nH]ccc12` [Example 46, N-[2-(5-fluoro-6-methylpyridin-2-yl)-7H-pyrrolo[2,3-d]pyrimidin-4-yl]-3-methoxypyridin-4-amine]: 0.79 nM; for `Cc1nc(-c2nc(Nc3ccnc(NC(=O)C4CC4)c3)c3cc[nH]c3n2)ccc1F` [Example 47, N-(4-{[2-(5-fluoro-6-methylpyridin-2-yl)-7H-pyrrolo[2,3-d]pyrimidin-4-yl]amino}pyridin-2-yl)cyclopropanecarboxamide]: 1.4 nM; for `CN(c1ccncc1)c1nc(-c2cccc(NS(C)(=O)=O)n2)nc2[nH]ccc12` [Example 48, N-(6-{4-[methyl(pyridin-4-yl)amino]-7H-pyrrolo[2,3-d]pyrimidin-2-yl}pyridin-2-yl)methanesulfonamide]: 4.3 nM.
The same measure for `CS(=O)(=O)Nc1cccc(-c2nc(Nc3ccncc3Cl)c3cc[nH]c3n2)n1` [Example 49, N-(6-{4-[(3-chloropyridin-4-yl)amino]-7H-pyrrolo[2,3-d]pyrimidin-2-yl}pyridin-2-yl)methanesulfonamide]: 2.2 nM.
